We go through 25 compounds from ChEMBL document CHEMBL1201862, “PubChem BioAssay data set” (2004).

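Five compound concentrations were applied to cells in 96-well plates for 48 hours; endpoints were derived by simple linear interpolation of the resulting dose-response curve. Here, GI50 denotes the concentration required for 50% inhibition of growth.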 The source made the active and inactive calls. Cut-off read from the data, not from the text of the source: active = GI50 up to about 1.1 µM and inactive = higher. Some results are limits rather than exact numbers.

Among the test systems are DMS-114; DLD-1; HOP-18; M19-MEL; RXF 631; KM-20L2; DMS-273; SNB-78; XF498.
Common to all, as to assay: inhibition of tumour cell growth, NCI panel, 48 h

For the compound `CC(C)OCN1COCN/C1=N/C#N`, the GI50 in the experiment with DMS-114 was 58.6 µM (inactive); in the experiment with DLD-1, 26.4 µM (inactive); in the experiment with HOP-18 it was > 100 µM (inactive); in the experiment on M19-MEL it was > 100 µM (inactive); with RXF 631, > 100 µM (inactive); in the experiment with KM-20L2 it was > 100 µM (inactive). Further, in the experiment on DMS-273, the GI50 is 37.5 µM (inactive).
Take `N#CC1C(=O)NC(=O)C1=O` (centres undefined): the GI50 with DMS-114, in the experiment on SNB-78, in the experiment on XF498, in the experiment on HOP-18, with M19-MEL and with RXF 631 was > 100 µM (inactive) in each case. In addition, the GI50 in the experiment with KM-20L2 and in the experiment on DMS-273 was > 100 µM (inactive) each time.
Consider `Cn1cc2ccccc2c1-c1nc(F)nc(Oc2ccc3c(c2)CC[C@@H]2C3CC[C@@]3(C)C2CC[C@@H]3O)n1` (some centres undefined), for which the GI50 with DMS-114 was 3.66 µM (inactive); with DLD-1 it was 7.16 µM (inactive); with SNB-78, 22.3 µM (inactive); in the experiment on HOP-18, 18.2 µM (inactive); with M19-MEL, 7.98 µM (inactive); in the experiment on KM-20L2, 19.1 µM (inactive). Further, in the experiment on DMS-273, the GI50 is 11.6 µM (inactive).
Turning to `Cc1cc(NS(=O)(=O)c2ccc(NC(=O)c3cccc4c(=O)c5ccccc5[nH]c34)cc2)no1`, the GI50 in the experiment on DMS-114 is 46 µM (inactive); with DLD-1 it was 61.4 µM (inactive); in the experiment with SNB-78, 38.7 µM (inactive); with XF498, 13.6 µM (inactive); in the experiment with HOP-18, 10.2 µM (inactive); in the experiment on M19-MEL, 39.4 µM (inactive). Further, the GI50 in the experiment on KM-20L2 is > 100 µM (inactive).
With `CCCCN/C(=N/C#N)NCc1ccccc1`, the GI50 with DLD-1, with SNB-78, in the experiment with XF498, in the experiment with M19-MEL, with KM-20L2 and in the experiment on DMS-273 was > 100 µM (inactive) each time.
On to `O=C1NN=CN2C(=O)CCC12` (centres undefined), for which the GI50 in the experiment with DMS-114, in the experiment with DLD-1, in the experiment on SNB-78, with XF498, with M19-MEL and with RXF 631 was > 100 µM (inactive) each time. Besides, the GI50 in the experiment on KM-20L2 and with DMS-273 was > 100 µM (inactive) each time.
`Cc1ccc(/N=C/c2ccc3c(c2)OCO3)cc1C`: the GI50 in the experiment on DLD-1, in the experiment with SNB-78, in the experiment on XF498, in the experiment with HOP-18, in the experiment with M19-MEL and in the experiment with RXF 631 was > 100 µM (inactive) throughout. Besides, the GI50 with KM-20L2 and in the experiment with DMS-273 was > 100 µM (inactive) each time.
Regarding `O=C1CCC2CCOc3ccc(O)c1c32` (centres undefined), the GI50 in the experiment with DMS-114, with DLD-1, with SNB-78, in the experiment on M19-MEL, in the experiment on RXF 631 and in the experiment on KM-20L2 was > 100 µM (inactive) each time. Further, in the experiment with DMS-273, the GI50 is > 100 µM (inactive).
In the case of `O=C(O)CC1CC=C[C@H]2c3cc4c(cc3C(=O)NC12)OCO4` (some centres undefined), the GI50 in the experiment on DMS-114, with DLD-1, in the experiment with SNB-78, in the experiment on M19-MEL, with KM-20L2 and in the experiment on DMS-273 was > 75 µM (inactive) each time.
As to `Nc1nc(S)nc(C(=O)Nc2ccc(Cl)c(Cl)c2)c1-c1ccc(Cl)cc1`, the GI50 in the experiment on DMS-114, in the experiment on DLD-1, in the experiment with XF498, in the experiment on HOP-18, in the experiment with M19-MEL and in the experiment on RXF 631 was > 100 µM (inactive) in each case. Moreover, the GI50 with KM-20L2 is > 100 µM (inactive).
For the compound `CCCN(CCC)C(=O)c1nc(N)nc(-c2ccc(OC)cc2)c1-c1ccc(OC)cc1`, the GI50 with DMS-114 was 84.9 µM (inactive); in the experiment with DLD-1, > 100 µM (inactive); in the experiment on SNB-78, 80.5 µM (inactive); with XF498 it was > 100 µM (inactive); in the experiment with HOP-18 it was 46.7 µM (inactive); in the experiment with RXF 631 it was > 100 µM (inactive). For the same compound, the GI50 with KM-20L2 and in the experiment with DMS-273 was > 100 µM (inactive) in each case.
For the compound `O=C1[C@H]2ON(c3ccccc3)C(c3ccco3)[C@H]2C(=O)N1c1ccc(Cc2ccc(N3C(=O)[C@@H]4ON(c5ccccc5)C(c5ccco5)[C@@H]4C3=O)cc2)cc1` (some centres undefined), the GI50 in the experiment on DMS-114 was > 100 µM (inactive); in the experiment on DLD-1, > 100 µM (inactive); in the experiment on SNB-78, > 100 µM (inactive); in the experiment on XF498, 42.7 µM (inactive); with HOP-18, > 100 µM (inactive); in the experiment on M19-MEL, > 100 µM (inactive). Also, the GI50 in the experiment with KM-20L2 is > 100 µM (inactive); in the experiment on DMS-273, 78.3 µM (inactive).
Take `Cc1cc(N(CCC#N)CCC#N)ccc1/N=N/c1ccc(C(=O)O)cc1`: the GI50 is > 100 µM (inactive) with DMS-114; > 100 µM (inactive) in the experiment on SNB-78; > 100 µM (inactive) with XF498; 58.9 µM (inactive) in the experiment on HOP-18; > 100 µM (inactive) in the experiment with M19-MEL; > 100 µM (inactive) in the experiment with DMS-273.
With `CC(=O)OCCc1cccnc1/C=N/O`, the GI50 with DMS-114, in the experiment on DLD-1, with SNB-78, in the experiment with XF498, in the experiment with HOP-18 and in the experiment on M19-MEL was > 100 µM (inactive) each time. Besides, the GI50 in the experiment with KM-20L2 and in the experiment on DMS-273 was > 100 µM (inactive) each time.
`CC12CC(=O)OC(Cc3ccccc31)O2` (centres undefined): the GI50 in the experiment with DMS-114, in the experiment on DLD-1, with SNB-78, in the experiment on XF498, in the experiment with HOP-18 and with M19-MEL was > 100 µM (inactive) each time. Moreover, the GI50 in the experiment with KM-20L2 and in the experiment on DMS-273 was > 100 µM (inactive) throughout.
Take `CCOc1ccc(/C=N\N2C(=O)c3ccccc3C2=O)cc1`: the GI50 with DMS-114, with DLD-1, in the experiment with SNB-78, in the experiment with XF498, in the experiment with HOP-18 and with M19-MEL was > 100 µM (inactive) in each case. Further, the GI50 in the experiment with RXF 631, with KM-20L2 and with DMS-273 was > 100 µM (inactive) in each case.
On to `CCOC(=O)C(=O)Nc1nc2c(s1)C(=O)c1ccccc1C2=O`, for which the GI50 in the experiment on DMS-114 was 3.6 µM (inactive); in the experiment with DLD-1 it was 15.3 µM (inactive); in the experiment with SNB-78 it was 11.6 µM (inactive); with XF498, 13.9 µM (inactive); in the experiment with M19-MEL, 2.49 µM (inactive); in the experiment on RXF 631, 12.3 µM (inactive). The GI50 was 21.2 µM (inactive) in the experiment on KM-20L2 and 19.6 µM (inactive) in the experiment on DMS-273.
`COC(=O)C1=C(C)C(=O)C2(CCCCCC2C(=O)OC)C1` (centres undefined): the GI50 with DMS-114, with DLD-1, in the experiment with SNB-78, with HOP-18, with M19-MEL and with KM-20L2 was > 100 µM (inactive) throughout. Also, the GI50 with DMS-273 was > 100 µM (inactive).
As for `COc1cc(O)c(C(=O)/C=C/c2ccc(OC)c(OCc3ccccc3)c2)c(OC)c1`, the GI50 with DLD-1 was > 100 µM (inactive); with SNB-78, 2.57 µM (inactive); in the experiment with XF498, > 100 µM (inactive); in the experiment with HOP-18, > 100 µM (inactive); in the experiment on M19-MEL, > 100 µM (inactive); with KM-20L2, > 100 µM (inactive). Besides, the GI50 in the experiment with DMS-273 is 0.175 µM (active).
As to `COC(=O)[C@@]12OC[C@]34C([C@@H](O)C1O)[C@@]1(C)CC(=O)C(O)=C(C)C1C[C@H]3OC(=O)[C@H](OC(=O)CC(C)C(F)(F)F)[C@H]42` (some centres undefined), the GI50 is 0.00948 µM (active) in the experiment on DMS-114; 0.0877 µM (active) in the experiment on DLD-1; 0.206 µM (active) in the experiment on SNB-78; 0.00522 µM (active) with XF498; 0.308 µM (active) with HOP-18; 0.0164 µM (active) in the experiment with M19-MEL. Also, the GI50 in the experiment on KM-20L2 is 0.0195 µM (active); in the experiment with DMS-273, 0.00693 µM (active).
Take `CCN(CC)CCCNc1ccc2nc(C)n3c4ccc(O)cc4c(=O)c1c23`: the GI50 in the experiment on DMS-114 was 5.41 µM (inactive); in the experiment on DLD-1, 1.2 µM (inactive); in the experiment with SNB-78, 5.35 µM (inactive); in the experiment on XF498, 6.81 µM (inactive); with HOP-18 it was 12.4 µM (inactive); in the experiment on M19-MEL it was 10.6 µM (inactive). Also, the GI50 is 3.79 µM (inactive) in the experiment with RXF 631, 1.65 µM (inactive) in the experiment on KM-20L2 and 0.619 µM (active) in the experiment on DMS-273.
As to `CCN1/C(=C/C(C)=C/c2sc3ccccc3[n+]2CC)Sc2ccccc21`, the GI50 in the experiment on DMS-114 was 0.082 µM (active); in the experiment on DLD-1, 0.207 µM (active); in the experiment on SNB-78 it was 0.34 µM (active); in the experiment on XF498 it was 0.0762 µM (active); in the experiment on M19-MEL, 0.173 µM (active); with KM-20L2 it was 0.191 µM (active). Further, the GI50 in the experiment with DMS-273 was 0.064 µM (active).
As to `O=CN/C=C/c1ccc(O)c(O)c1`, the GI50 in the experiment with DMS-114, with DLD-1, with SNB-78, in the experiment with XF498, with M19-MEL and in the experiment with RXF 631 was > 100 µM (inactive) in each case. Also, the GI50 in the experiment with KM-20L2 and in the experiment with DMS-273 was > 100 µM (inactive) each time.
For the compound `O=c1cc(-c2ccc(O)cc2)oc2cc(O)cc(O)c12` [APIGENIN], the GI50 in the experiment with DMS-114 is 32.3 µM (inactive); in the experiment on SNB-78, 17.5 µM (inactive); in the experiment with XF498, 24.2 µM (inactive); with M19-MEL, 33.5 µM (inactive); in the experiment with KM-20L2 it was 28.8 µM (inactive); in the experiment with DMS-273, 18.6 µM (inactive).
Turning to `COc1cc(-c2oc3c(OC)c(OC)cc(O)c3c(=O)c2OC)ccc1O` [TERNATIN], the GI50 is > 100 µM (inactive) in the experiment on DMS-114; 3.7 µM (inactive) in the experiment on DLD-1; 6.49 µM (inactive) with SNB-78; 2.2 µM (inactive) in the experiment on XF498; > 100 µM (inactive) in the experiment with RXF 631; > 100 µM (inactive) in the experiment with KM-20L2.
